Test results from patent US20080161288A1, “COMPOUNDS” (Pfizer Inc., priority 2006, published 2008).
Where a name gives a salt, the structure may show the parent alone.

Columns and labels:
[1] = target: T1, porcine beta-2 adrenoceptor (Sus scrofa, UniProt Q28997); experiment: cAMP assay in CHO cells transfected with the porcine beta-2 adrenoceptor; type: cell-based; settings: cAMP (DiscoveRx Hit Hunter cAMP II) in CHO cells transfected with porcine beta-2 adrenoceptor, 30 minutes with compound, 0.5 mM IBMX
T1 construct: expressed in transfected cells; host or cells: CHO cells
Description: (§1) CHO cells transfected with the bovine or porcine beta-2 adrenceptors were maintained in culture in DMEM/HAMS F12+10% FBS+2 mM glutamine+500 μg/ml geneticin (for the porcine receptor the medium was supplement with 1.5 mM HEPES) at 37° C. with a 5% CO2 atmosphere.
(§2) Cells were plated into 96 well viewplates in medium and incubated overnight at 37° C. with a 5% CO2 atmosphere. The cells were pre-incubated with 0.5 mM IBMX in PBS for 30 minutes prior to incubation with increasing concentrations of experimental compound (5×10^−12 to 10^−5 M) for 30 minutes at 37° C. with a 5% CO2 atmosphere. At the end of the incubation time the compound was removed and the cells assayed for cAMP using the DiscoveRx Hit Hunter cAMP II™ assay kit.
(§3) Duplicate samples were run for each experimental compound and the data generated was analysed using EC50 analysis software in Graphpad Prism.

[2] = target: T2, bovine beta-2 adrenoceptor (Bos taurus, UniProt Q28044); experiment: cAMP assay in CHO cells transfected with the bovine beta-2 adrenoceptor; type: cell-based; settings: cAMP (DiscoveRx Hit Hunter cAMP II) in CHO cells transfected with bovine beta-2 adrenoceptor, 30 minutes with compound, 0.5 mM IBMX
T2 construct: expressed in transfected cells; host or cells: CHO cells
Description: as §1, §2, §3

T2 sequence (Q28044 whole entry): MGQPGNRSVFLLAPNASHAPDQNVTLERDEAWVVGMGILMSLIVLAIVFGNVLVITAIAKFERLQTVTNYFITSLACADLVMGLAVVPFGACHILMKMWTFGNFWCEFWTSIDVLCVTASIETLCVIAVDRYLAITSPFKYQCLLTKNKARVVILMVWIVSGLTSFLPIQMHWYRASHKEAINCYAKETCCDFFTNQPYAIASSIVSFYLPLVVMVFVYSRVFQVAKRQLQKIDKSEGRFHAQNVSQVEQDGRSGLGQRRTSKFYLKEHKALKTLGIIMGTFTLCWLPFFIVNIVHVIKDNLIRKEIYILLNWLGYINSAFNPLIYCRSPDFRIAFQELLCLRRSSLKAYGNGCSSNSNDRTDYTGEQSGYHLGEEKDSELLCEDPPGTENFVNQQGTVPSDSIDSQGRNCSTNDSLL
T1 sequence (Q28997 whole entry): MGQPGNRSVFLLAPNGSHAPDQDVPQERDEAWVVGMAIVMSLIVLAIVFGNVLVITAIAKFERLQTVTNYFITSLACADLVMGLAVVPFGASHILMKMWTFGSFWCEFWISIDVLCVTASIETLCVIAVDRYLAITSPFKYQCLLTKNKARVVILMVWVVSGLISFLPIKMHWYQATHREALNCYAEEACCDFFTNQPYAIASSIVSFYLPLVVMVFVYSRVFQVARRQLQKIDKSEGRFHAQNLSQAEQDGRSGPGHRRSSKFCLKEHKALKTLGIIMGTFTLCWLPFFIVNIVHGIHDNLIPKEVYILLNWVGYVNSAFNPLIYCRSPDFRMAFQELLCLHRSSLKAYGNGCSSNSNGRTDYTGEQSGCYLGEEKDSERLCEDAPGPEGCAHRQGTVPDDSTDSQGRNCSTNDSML

EC50 [1] [nM] | EC50 [2] [nM] | Structure (SMILES)
1.15 | 1.21 | CC(CCc1cc(F)c(F)cc1O)N[C@@H]1CCn2c(=O)[nH]c3cccc(c32)[C@H]1O (mixture of isomers) [Example 11a, 6-{[3-(4,5-Difluoro-2-hydroxyphenyl)-1-methylpropyl]amino}-7-hydroxy-4,5,6,7-tetrahydroimidazo[4,5,1-jk][1]benzazepin-2(1H)-one]
1.3 | 1.7 | CC(CCc1cccc(O)c1Cl)N[C@@H]1CCn2c(=O)[nH]c3cccc(c32)[C@H]1O (single isomer, unassigned) [Example 50, 6-{[3-(2-Chloro-3-hydroxyphenyl)-1-methylpropyl]amino}-7-hydroxy-4,5,6,7-tetrahydroimidazo[4,5,1-jk][1]benzazepin-2(1H)-one]
104 | 77.7 | CC(CCc1cc(F)ccc1O)N[C@@H]1CCn2c(=O)[nH]c3cccc(c32)[C@H]1O (single isomer, unassigned) [Example 7a, 6-{[3-(5-Fluoro-2-hydroxyphenyl)-1-methylpropyl]amino}-7-hydroxy-4,5,6,7-tetrahydroimidazo[4,5,1-jk][1]benzazepin-2(1H)-one]
2.4 | 1.1 | CC(CCc1ccc(O)c(F)c1)NC1CCn2c(=O)[nH]c3cccc(c32)C1O (single isomer, unassigned) [Example 58, 6-{[3-(3-Fluoro-4-hydroxyphenyl)-1-methylpropyl]amino}-7-hydroxy-4,5,6,7-tetrahydroimidazo[4,5,1-jk][1]benzazepin-2(1H)-one]
6 | 2.7 | C[C@H](CCc1cccc(Cl)c1O)N[C@@H]1CCn2c(=O)[nH]c3cccc(c32)[C@H]1O (single isomer, unassigned) [Example 5c]
6.1 | 13.4 | CC(CCc1ccc(O)cc1)N[C@@H]1CCn2c(=O)[nH]c3cccc(c32)[C@H]1O (single isomer, unassigned) [Example 2a, 7-Hydroxy-6-{[3-(4-hydroxyphenyl)-1-methylpropyl]amino}-4,5,6,7-tetrahydroimidazo[4,5,1-jk][1]benzazepin-2(1H)-on]
2.8 | 5.2 | CCS(=O)(=O)Nc1ccccc1CCC(C)NC1CCn2c(=O)[nH]c3cccc(c32)C1O (single isomer, unassigned) [Example 56, N-{2-[3-{[7-Hydroxy-2-oxo-1,2,4,5,6,7-hexahydroimidazo[4,5,1-jk][1]benzazepin-6-yl]amino}butyl]phenyl}ethanesulfonamide]
2.7 | 4.3 | CC(CCc1c(Cl)ccc(O)c1Cl)NC1CCn2c(=O)[nH]c3cccc(c32)C1O (single isomer, unassigned) [Example 55]
5.9 | 14 | CC(CCc1ccc(OCC2CC2)cc1)N[C@@H]1CCn2c(=O)[nH]c3cccc(c32)[C@H]1O (mixture of isomers) [Example 1a, 6-({3-[4-(Cyclopropylmethoxy)phenyl]-1-methylpropyl}amino)-7-hydroxy-4,5,6,7-tetrahydroimidazo[4,5,1-jk][1]benzazepin-2(1H)-one]
1.7 | 3.1 | CC(CCc1ccc(Cl)cc1O)N[C@@H]1CCn2c(=O)[nH]c3cccc(c32)[C@H]1O (mixture of isomers) [Example 26, 6-{[3-(4-Chloro-2-hydroxyphenyl)-1-methylpropyl]amino}-7-hydroxy-4,5,6,7-tetrahydroimidazo[4,5,1-jk][1]benzazepin-2(1H)-one]
5.6 | 7.2 | CC(CCc1cccc(O)c1)N[C@@H]1CCn2c(=O)[nH]c3cccc(c32)[C@H]1O (mixture of isomers) [Example 43, 7-Hydroxy-6-{[3-(3-hydroxyphenyl)-1-methylpropyl]amino}-4,5,6,7-tetrahydroimidazo[4,5,1-jk][1]benzazepin-2(1H)-one]
10.5 | 15.8 | CC(CCc1ccc(F)cc1)N[C@@H]1CCn2c(=O)[nH]c3cccc(c32)[C@H]1O (mixture of isomers) [Example 23, 6-{[3-(4-Fluorophenyl)-1-methylpropyl]amino}-7-hydroxy-4,5,6,7-tetrahydroimidazo[4,5,1-jk][1]benzazepin-2(1H)-one]
50.3 | 234 | CC(CCc1ccc(NS(=O)(=O)C(F)(F)F)cc1)NC1CCn2c(=O)[nH]c3cccc(c32)C1O (single isomer, unassigned) [Example 69, 1,1,1-Trifluoro-N-{4-[3-{[7-hydroxy-2-oxo-1,2,4,5,6,7-hexahydroimidazo[4,5,1-jk][1]benzazepin-6-yl]amino}butyl]phenyl}methanesulfonamide]
40.8 | 39.2 | CC(=O)Nc1ccccc1CCC(C)NC1CCn2c(=O)[nH]c3cccc(c32)C1O (single isomer, unassigned) [Example 63, N-{2-[3-{[7-Hydroxy-2-oxo-1,2,4,5,6,7-hexahydroimidazo[4,5,1-jk][1]benzazepin-6-yl]amino}butyl]phenyl}acetamide]
10.7 | 29.6 | CC(CCc1ccc(C(F)(F)F)cc1)N[C@@H]1CCn2c(=O)[nH]c3cccc(c32)[C@H]1O (mixture of isomers) [Example 18, 7-Hydroxy-6-({1-methyl-3-[4-(trifluoromethyl)phenyl]propyl}amino)-4,5,6,7-tetrahydroimidazo[4,5,1-jk][1]benzazepin-2(1H)-one]
5.6 | 7.5 | CC(CCc1cccc(O)c1)NC1CCn2c(=O)[nH]c3cccc(c32)C1O (single isomer, unassigned) [Example 39, 7-Hydroxy-6-{[3-(3-hydroxyphenyl)-1-methylpropyl]amino}-4,5,6,7-tetrahydroimidazo[4,5,1-jk][1]benzazepin-2(1H)-one]
12.5 | 12 | CCC(=O)Nc1cccc(CCC(C)NC2CCn3c(=O)[nH]c4cccc(c43)C2O)c1 (single isomer, unassigned) [Example 61, N-{3-[3-{[7-Hydroxy-2-oxo-1,2,4,5,6,7-hexahydroimidazo[4,5,1-jk][1]benzazepin-6-yl]amino}butyl]phenyl}propanamide]
101 | 123 | CC(CCc1cc(Cl)ccc1O)N[C@@H]1CCn2c(=O)[nH]c3cccc(c32)[C@H]1O (single isomer, unassigned) [Example 19b, 6-{[3-(5-Chloro-2-hydroxyphenyl)-1-methylpropyl]amino}-7-hydroxy-4,5,6,7-tetrahydroimidazo[4,5,1-jk][1]benzazepin-2(1H)-one]
78.8 | 167 | CC(CCc1cccc(C(=O)O)c1)N[C@@H]1CCn2c(=O)[nH]c3cccc(c32)[C@H]1O (single isomer, unassigned) [Example 53]
2.7 | 2.2 | CC(CCc1cc(Cl)cc(Cl)c1O)N[C@@H]1CCn2c(=O)[nH]c3cccc(c32)[C@H]1O (mixture of isomers) [Example 25, 6-{[3-(3,5-Dichloro-2-hydroxyphenyl)-1-methylpropyl]amino}-7-hydroxy-4,5,6,7-tetrahydroimidazo[4,5,1-jk][1]benzazepin-2(1H)-one]
8.1 | 27.2 | CC(CCc1cc(C(F)(F)F)ccc1O)N[C@@H]1CCn2c(=O)[nH]c3cccc(c32)[C@H]1O (mixture of isomers) [Example 31, 7-Hydroxy-6-({3-[2-hydroxy-5-(trifluoromethyl)phenyl]-1-methylpropyl}amino)-4,5,6,7-tetrahydroimidazo[4,5,1-jk][1]benzazepin-2(1H)-one]
48.7 | 221 | Cc1cc(CCC(C)NC2CCn3c(=O)[nH]c4cccc(c43)C2O)cc(C)c1O (centres unmarked) [Example 15, 7-Hydroxy-6-{[3-(4-hydroxy-3,5-dimethylphenyl)-1-methylpropyl]amino}-4,5,6,7-tetrahydroimidazo[4,5,1-jk][1]benzazepin-2(1H)-one]
 | 156 | CC(CCc1ccc(NS(=O)(=O)c2ccccc2)cc1)NC1CCn2c(=O)[nH]c3cccc(c32)C1O (single isomer, unassigned) [Example 67, N-{4-[3-{[7-Hydroxy-2-oxo-1,2,4,5,6,7-hexahydroimidazo[4,5,1-jk][1]benzazepin-6-yl]amino}butyl]phenyl}benzenesulfonamide]
11.9 |  | CC(CCc1ccccc1NS(C)(=O)=O)N[C@@H]1CCn2c(=O)[nH]c3cccc(c32)[C@H]1O (mixture of isomers) [Example 33, N-[2-(3-{[7-Hydroxy-2-oxo-1,2,4,5,6,7-hexahydroimidazo[4,5,1-jk][1]benzazepin-6-yl]amino}butyl)phenyl]methanesulfonamide]

Structure (SMILES) | EC50 [1] [nM] | EC50 [2] [nM]
CC(CCc1ccccc1O)N[C@@H]1CCn2c(=O)[nH]c3cccc(c32)[C@H]1O (single isomer, unassigned) [Example 48, Hydrochloride salt of 7-hydroxy-6-{[3-(2-hydroxyphenyl)-1-methylpropyl]amino}-4,5,6,7-tetrahydroimidazo[4,5,1-jk][1]benzazepin-2(1H)-one] | 1.9 | 1
CC(CCc1ccccc1O)N[C@@H]1CCn2c(=O)[nH]c3cccc(c32)[C@H]1O (mixture of isomers) [Example 6a, 7-Hydroxy-6-{[3-(2-hydroxyphenyl)-1-methylpropyl]amino}-4,5,6,7-tetrahydroimidazo[4,5,1-jk][1]benzazepin-2(1H)-one] | 1.5 | 1.5
